Experimental data: PMC7218270 (EBioMedicine, 2020)
Values after ≈ are worked out from the molar mass of the structure shown. Values joined by “and” are separate entries in the source; they are usually repeats but may differ in a detail not shown here. Identical values can stand only once.

Assays:
[1] = tested on: Enterococcus faecalis; test: MIC, planktonic cells; type: cell-based; details: 18 h
[2] = tested on: Mlicrococcus scarlatinae; test: MIC, planktonic cells; type: cell-based; details: 18 h
[3] = tested on: S. pneumoniae; test: MIC, planktonic cells; type: cell-based; details: Streptococcus pneumoniae, 18 h
[4] = tested on: E. coli ATCC25922; test: MIC, planktonic cells; type: cell-based; details: Escherichia coli, ATCC25922, 18 h
[5] = tested on: E. coli A2; test: MIC, planktonic cells; type: cell-based; details: Escherichia coli, A2, 18 h
[6] = tested on: P. aeruginosa CMCC10104; test: MIC, planktonic cells; type: cell-based; details: Pseudomonas aeruginosa, CMCC10104, 18 h
[7] = tested on: P. aeruginosa ATCC27853; test: MIC, planktonic cells; type: cell-based; details: Pseudomonas aeruginosa, ATCC27853, 18 h
[8] = tested on: P. aeruginosa 110; test: MIC, planktonic cells; type: cell-based; details: Pseudomonas aeruginosa, 110, 18 h
[9] = tested on: P. aeruginosa 103; test: MIC, planktonic cells; type: cell-based; details: Pseudomonas aeruginosa, 103, 18 h
[10] = tested on: Drug-susceptible P. aeruginosa; test: Resistance study, serial passages; type: cell-based; details: passages at 1/4 × MIC
[11] = tested on: C. albicans ATCC10231; test: microbe, parasite or virus in culture; type: cell-based; details: Candida albicans, ATCC10231, 72 h
[12] = tested on: C. albicans 7248; test: microbe, parasite or virus in culture; type: cell-based; details: Candida albicans, 7248, 72 h
[13] = tested on: C. albicans 006; test: microbe, parasite or virus in culture; type: cell-based; details: Candida albicans, 006, 72 h
[14] = tested on: C. neoformans ATCC28957; test: microbe, parasite or virus in culture; type: cell-based; details: Cryptococcus neoformans, ATCC28957, 72 h
[15] = tested on: C. neoformans 4906; test: microbe, parasite or virus in culture; type: cell-based; details: Cryptococcus neoformans, 4906, 72 h
[16] = tested on: C. neoformans 6120; test: microbe, parasite or virus in culture; type: cell-based; details: Cryptococcus neoformans, 6120, 72 h
[17] = tested on: C. neoformans 001; test: microbe, parasite or virus in culture; type: cell-based; details: Cryptococcus neoformans, 001, 72 h
[18] = tested on: Drug-susceptible C. albicans; type: cell-based
[19] = tested on: fluconazole-resistant C. albicans; design: species or system G. mellonella; details: in vivo

Compound	MIC [1] [µg/mL]	MIC [2] [µg/mL]	MIC [3] [µg/mL]	MIC [4] [µg/mL]	MIC [5] [µg/mL]	MIC [6] [µg/mL]	MIC [7] [µg/mL]	MIC [8] [µg/mL]	MIC [9] [µg/mL]	MIC increase ([10]; at the 8th generation) [fold]	MIC increase ([10]; at the 20th generation) [fold]	MIC increase [18]	other results
CC(C)(O/N=C(\C(=O)N[C@@H]1C(=O)N2C(C(=O)[O-])=C(C[n+]3ccccc3)CS[C@H]12)c1csc(N)n1)C(=O)O [Ceftazidime]	> 128	> 128	> 128	1 (≈ 1.83 µM)	64 (≈ 117 µM)	0.5 (≈ 0.915 µM)	1 (≈ 1.83 µM)	> 128	> 128	4	16	–	–
OC(Cn1cncn1)(Cn1cncn1)c1ccc(F)cc1F [Fluconazole]	–	–	–	–	–	–	–	–	–	–	–	4 fold and 8 fold	MIC [11]: 4 µg/mL (≈ 13.1 µM); MIC [12]: > 128 µg/mL; MIC [13]: 4 µg/mL (≈ 13.1 µM); MIC [14]: 2 µg/mL (≈ 6.53 µM); MIC [15]: 128 µg/mL (≈ 418 µM); MIC [16]: > 128 µg/mL; MIC [17]: 2 µg/mL (≈ 6.53 µM); survival rate of G. mellonella [19]: 40%
CC1(C)S[C@@H]2[C@H](NC(=O)COc3ccccc3)C(=O)N2[C@H]1C(=O)O [Penicillin V potassium]	> 128	> 128	> 128	2	> 128	4	2	> 128	> 128	–	–	–	–
CC(=O)N1CCN(c2ccc(OCC3COC(Cn4ccnc4)(c4ccc(Cl)cc4Cl)O3)cc2)CC1 (stereo not drawn) [ketoconazole]	–	–	–	–	–	–	–	–	–	–	–	4 fold	–
C[C@H]1COc2c(N3CCN(C)CC3)c(F)cc3c(=O)c(C(=O)O)cn1c23 [levofloxacin]	–	–	–	–	–	–	–	–	–	4	8	–	–
Polymyxin B	–	–	–	–	–	–	–	–	–	16	–	–	–
